Consider one substance from patent publication US7166739B2, “Esters of monomethyl branched alcohols and process for preparing and using same in cosmetics and personal care products” (Finetex, Inc., priority 2004, dated 2007).

Data set [1] is described as follows: Surface tension of esters (typical properties). Format: physicochemical. As for the experimental part: (§1) An analysis of the esters of the invention, i.e., Benzoate ester (Ref. No. 130-63); Octanoate Ester (Ref. No. 130-67); and Maleate Ester (Ref. No. 134-26), was conducted as to appearance, color, percentage water, acidity, saponification value, surface tension, spreading coefficient, freezing point, refractive index and specific gravity. The results are presented in Table I which identifies typical properties of the esters of the invention.

The nature of data set [2]: Spreading coefficient of esters (typical properties). More on the design: unit not given here. Format: physicochemical. How it is done: as §1
A short description of data set [3]: Solubility of esters in various solvents (1 gram of ester in 10 gm. solvent).
A short description of data set [4]: Viscosity of esters (typical properties). Format: physicochemical. The following applies: @ 25° C. As for the experimental part: as §1

“Di(C16–17 alkyl) maleate [Maleate Ester (134-26)]”: in data set [1], the “Surface Tension” value stood at 30.5 dynes/cm. In addition, the “Spreading Coefficient” value in data set [2] is 34.0. Besides, in data set [3], the “Solubility in Dow Corning Fluid 245/345” value is reported as “+”, the “Solubility in Ethanol” value is reported as “+”, the “Solubility in Finester EH-25” value was “+” and the “Solubility in Finsolv BOD” value was “+”. Besides, in data set [3], the “Solubility in Finsolv EB” value is reported as “+”, the “Solubility in Finsolv EMG-20” value is recorded as “−”, the “Solubility in Finsolv P” value is “+” and the “Solubility in Finsolv PG-22” value is recorded as “+”. For the same substance, in data set [3], the “Solubility in Finsolv PL-62” value was “+”, the “Solubility in Finsolv PL-355” value is reported as “+”, the “Solubility in Finsolv SB” value is reported as “+” and the “Solubility in Finsolv TN” value was “+”. Besides, in data set [3], the “Solubility in Glycerine” value was “−”, the “Solubility in IPM/IPP (Witconol 2314/2316)” value is given as “+”, the “Solubility in Mineral Oil” value is listed as “+” and the “Solubility in Propylene Glycol” value is “−”. Besides, the “Solubility in Water” value in data set [3] is “−”. For the same substance, in data set [4], the Viscosity is 80 cps.
